Laboratory results reported in ChEMBL document CHEMBL3751717, “Benzylamide antagonists of protease activated receptor 2 with anti-inflammatory activity” (Bioorg Med Chem Lett, 2016).
Activity calls are given as the source filed them. The rule behind the calls is not given here.

Columns and labels:
[1] = molecular target: Proteinase-activated receptor 2 (Homo sapiens) (UniProt P55085); test: Agonist activity at PAR2 in human HT-29 cells assessed as induction of ca2+ release at 10 uM after 1 hr by FLIPR assay relative to 2f-LIGRLO-NH2; assay type: cell-based
[2] = molecular target: Proteinase-activated receptor 2 (Homo sapiens) (UniProt P55085); test: Antagonist activity at PAR2 in human HT-29 cells assessed as inhibition of 2f-LIGRLO-NH2-induced ca2+ release at 1 uM preincubated for 15 mins measured after 1 hr by FLIPR assay; assay type: cell-based
[3] = molecular target: T1, Proteinase-activated receptor 2 (Homo sapiens, UniProt P55085); test: Antagonist activity at PAR2 in human HT-29 cells assessed as inhibition of 2f-LIGRLO-NH2-induced ca2+ release preincubated for 15 mins measured after 1 hr by FLIPR assay; assay type: cell-based
T1 sequence (P55085 whole entry): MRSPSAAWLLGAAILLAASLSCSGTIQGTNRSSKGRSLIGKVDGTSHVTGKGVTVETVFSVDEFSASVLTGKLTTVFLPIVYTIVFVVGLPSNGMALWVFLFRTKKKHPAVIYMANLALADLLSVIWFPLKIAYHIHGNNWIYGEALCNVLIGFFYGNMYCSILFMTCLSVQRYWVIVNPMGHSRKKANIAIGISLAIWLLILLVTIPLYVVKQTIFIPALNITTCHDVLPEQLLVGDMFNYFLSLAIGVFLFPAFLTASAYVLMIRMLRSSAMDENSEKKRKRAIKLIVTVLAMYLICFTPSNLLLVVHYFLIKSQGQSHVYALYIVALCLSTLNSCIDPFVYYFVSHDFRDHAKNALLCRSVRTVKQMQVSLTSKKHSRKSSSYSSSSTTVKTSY

Rattus norvegicus [4] = test: Antiinflammatory activity in Wistar rat assessed as inhibition of 2f-LIGRLO-NH2-induced paw edema at 10 mg/kg, po dosed 120 mins before 2f-LIGRLO-NH2 stimulation; assay type: functional, organism-based
[5] = Cmax in Wistar rat at 10 mg/kg, po; assay type: ADME, organism-based; set-up: dose 10 mg/kg, route oral; details: in vivo
[6] = molecular target: T1, Proteinase-activated receptor 2; test: Displacement of europium-labeled 2f-LIGRLO-NH2 from human PAR2 expressed in CHO cells after 1 to 2 hrs; assay type: cell-based
[7] = molecular target: T1, Proteinase-activated receptor 2; test: Antagonist activity at PAR2 in human HT-29 cells assessed as inhibition of trypsin-induced ca2+ release preincubated for 15 mins measured after 1 hr by FLIPR assay; assay type: cell-based
[8] = molecular target: T2, Proteinase-activated receptor 1 (Homo sapiens) (UniProt P25116); test: Antagonist activity at PAR1 in human PC3 cells assessed as inhibition of alpha-thrombin-induced ca2+ release at 100 uM preincubated for 15 mins measured after 1 hr by FLIPR assay; assay type: cell-based; details: PC-3
T2 sequence (whole entry): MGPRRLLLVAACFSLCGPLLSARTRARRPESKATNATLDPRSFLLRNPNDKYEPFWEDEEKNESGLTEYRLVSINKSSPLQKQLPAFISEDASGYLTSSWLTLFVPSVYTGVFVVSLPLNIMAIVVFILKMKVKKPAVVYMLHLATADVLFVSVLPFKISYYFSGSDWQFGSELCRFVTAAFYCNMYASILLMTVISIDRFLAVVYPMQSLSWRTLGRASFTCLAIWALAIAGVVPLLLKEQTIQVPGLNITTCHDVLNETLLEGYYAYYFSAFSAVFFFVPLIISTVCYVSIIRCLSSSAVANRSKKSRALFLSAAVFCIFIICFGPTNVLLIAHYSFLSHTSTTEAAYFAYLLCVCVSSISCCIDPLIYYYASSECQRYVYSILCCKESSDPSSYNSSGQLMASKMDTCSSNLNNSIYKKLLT

HTEC [9] = test: Antiinflammatory activity in human HTEC cells assessed as inhibition of 2f-LIGRLO-NH2-induced IL-6 production at 5 to 10 uM after 24 hrs by ELISA; assay type: functional, cell-based
[10] = molecular target: T2, Proteinase-activated receptor 1 (Homo sapiens); test: Antagonist activity at PAR1 in human PC3 cells assessed as inhibition of TFLLR-induced ca2+ release at 100 uM preincubated for 15 mins measured after 1 hr by FLIPR assay; assay type: cell-based; details: PC-3
Rattus norvegicus [11] = test: Antiinflammatory activity in Wistar rat assessed as inhibition of 2f-LIGRLO-NH2-induced paw edema at 5 mg/kg, sc dosed 120 mins before 2f-LIGRLO-NH2 stimulation; assay type: functional, organism-based
[12] = AUC (0 to 6 hrs) in Wistar rat at 10 mg/kg, po; assay type: ADME, organism-based; set-up: time < 6 hr, dose 10 mg/kg, route oral; details: in vivo
HTEC [13] = test: Antiinflammatory activity in human HTEC cells assessed as inhibition of 2f-LIGRLO-NH2-induced TNFalpha production at 5 to 10 uM after 24 hrs by ELISA; assay type: functional, cell-based
[14] = Tmax in Wistar rat at 10 mg/kg, po; assay type: ADME, organism-based; details: in vivo

Row | SMILES | Activity [1] [%] | inhibition [2] [%] | other results
1 | CC[C@H](C)[C@H](NC(=O)[C@H](CC1CCCCC1)NC(=O)c1ccno1)C(=O)NCc1ccccc1OC(C)C | 38 | 67 | 
2 | CCC(C)Oc1ccccc1CNC(=O)[C@@H](NC(=O)[C@H](CC1CCCCC1)NC(=O)c1ccno1)[C@@H](C)CC (stereo partly specified) | 6 | 53 | IC50 ([3]; read-out: IC50): 1000 nM; IC50 ([3]; read-out: pIC50 (converted)): 1260 nM
3 | CC[C@H](C)[C@H](NC(=O)[C@H](CC1CCCCC1)NC(=O)c1ccno1)C(=O)NNc1ccccc1 | 41 | 33 | 
4 | CC[C@H](C)[C@H](NC(=O)[C@H](CC1CCCCC1)NC(=O)c1ccno1)C(=O)NCc1cccc(-c2ccccc2)c1 | 5 | 17 | 
5 | CCCOc1ccccc1CNC(=O)[C@@H](NC(=O)[C@H](CC1CCCCC1)NC(=O)c1ccno1)[C@@H](C)CC | 1 | 34 | 
6 | CC[C@H](C)[C@H](NC(=O)[C@H](CC1CCCCC1)NC(=O)c1ccno1)C(=O)N(C)Cc1ccccc1 | 7 | 7 | 
7 | CC[C@H](C)[C@H](NC(=O)[C@H](CC1CCCCC1)NC(=O)c1ccno1)C(=O)NCc1ccccn1 | 83 |  | 
8 | CC[C@H](C)[C@H](NC(=O)[C@H](CC1CCCCC1)NC(=O)c1ccno1)C(=O)N(C)Cc1ccccc1OC | 20 | 27 | 
9 | CC[C@H](C)[C@H](NC(=O)[C@H](CC1CCCCC1)NC(=O)c1ccno1)C(=O)NCc1ccccc1C(F)(F)F | 42 | 57 | 
10 | CC[C@H](C)[C@H](NC(=O)[C@H](CC1CCCCC1)NC(=O)c1ccno1)C(=O)NCc1ccccc1-c1ccccc1 | 1 | 0 | 
11 | CC[C@H](C)[C@H](NC(=O)[C@H](CC1CCCCC1)NC(=O)c1ccno1)C(=O)NCCc1ccc(OC)c(OC)c1 | 39 | 32 | 
12 | CC[C@H](C)[C@H](NC(=O)[C@H](CC1CCCCC1)NC(=O)c1ccno1)C(=O)N(CC(C)C)CC(C)C | 1 | 0 | 
13 | CC[C@H](C)[C@H](NC(=O)[C@H](CC1CCCCC1)NC(=O)c1ccno1)C(=O)NC1C2CC3CC(C2)CC1C3 (stereo partly specified) | 26 | 29 | 
14 | CC[C@H](C)[C@H](NC(=O)[C@H](CC1CCCCC1)NC(=O)c1ccno1)C(=O)NCc1nc2ccccc2[nH]1 | 86 |  | 
15 | CC[C@H](C)[C@H](NC(=O)[C@H](CC1CCCCC1)NC(=O)c1ccno1)C(=O)NCc1ccc(-c2ccccc2)cc1 | 6 | 0 | 
16 | CCCCOc1ccccc1CNC(=O)[C@@H](NC(=O)[C@H](CC1CCCCC1)NC(=O)c1ccno1)[C@@H](C)CC | 1 | 8 | 
17 | CC[C@H](C)[C@H](NC(=O)[C@H](CC1CCCCC1)NC(=O)c1ccno1)C(=O)N1CCC2(C=Cc3ccccc32)CC1 | 16 | 54 | inhibition (Rattus norvegicus [4]): Active; Cmax [5]: 1970 nM; IC50 ([3]; read-out: pIC50 (converted)): 1260 nM; IC50 ([7]; read-out: IC50): 9.6 µM; inhibition [8]: inactive; inhibition [10]: inactive; inhibition (Rattus norvegicus [11]): Active; AUC(0-t) at 6 h [12]: 3420 ng·h/mL; Tmax [14]: 2.78 h
18 | CCOc1ccccc1CNC(=O)[C@@H](NC(=O)[C@H](CC1CCCCC1)NC(=O)c1ccno1)[C@@H](C)CC | 29 | 71 | 

More lines, main results first:

Row | Activity [1] [%] | inhibition [2] [%] | SMILES | other results
19 | 20 | 100 | CC[C@H](C)[C@H](NC(=O)[C@H](CC1CCCCC1)NC(=O)c1ccno1)C(=O)NCc1ccccc1OC | inhibition (Rattus norvegicus [4]): inactive; Cmax [5]: 510 nM; IC50 [6]: 4.5 µM; IC50 ([3]; read-out: IC50): 500 nM; IC50 ([7]; read-out: pIC50 (converted)): 2 µM; inhibition [8]: inactive; inhibition (HTEC [9]): Active; inhibition [10]: inactive; inhibition (Rattus norvegicus [11]): Active; AUC(0-t) at 6 h [12]: 444 ng·h/mL; inhibition (HTEC [13]): Active; Tmax [14]: 2.63 h
20 | 28 | 82 | CC[C@H](C)[C@H](NC(=O)[C@H](CC1CCCCC1)NC(=O)c1ccno1)C(=O)NCc1ccc(F)cc1 | 
21 | 44 | 18 | CC[C@H](C)[C@H](NC(=O)[C@H](CC1CCCCC1)NC(=O)c1ccno1)C(=O)NCc1cccc(OC(F)(F)F)c1 | 
22 | 33 | 84 | CC[C@H](C)[C@H](NC(=O)[C@H](CC1CCCCC1)NC(=O)c1ccno1)C(=O)NCc1ccc2c(c1)OCO2 | 
23 | 87 |  | CC[C@H](C)[C@H](NC(=O)[C@H](CC1CCCCC1)NC(=O)c1ccno1)C(=O)NCc1ccncc1 | 
24 | 43 | 85 | CC[C@H](C)[C@H](NC(=O)[C@H](CC1CCCCC1)NC(=O)c1ccno1)C(=O)NCc1ccccc1Cl | 
25 | 28 | 74 | CC[C@H](C)[C@H](NC(=O)[C@H](CC1CCCCC1)NC(=O)c1ccno1)C(=O)NCc1cccc(F)c1 | 
26 | 32 | 98 | CC[C@H](C)[C@H](NC(=O)[C@H](CC1CCCCC1)NC(=O)c1ccno1)C(=O)NCc1cccc(OC)c1 | 
27 | 29 | 74 | CC[C@H](C)[C@H](NC(=O)[C@H](CC1CCCCC1)NC(=O)c1ccno1)C(=O)NCc1ccccc1C | 
28 | 2 | 12 | CC[C@H](C)[C@H](NC(=O)[C@H](CC1CCCCC1)NC(=O)c1ccno1)C(=O)NCc1cccc2ccccc12 | 
29 | 23 | 76 | CC[C@H](C)[C@H](NC(=O)[C@H](CC1CCCCC1)NC(=O)c1ccno1)C(=O)NCc1ccccc1 | 
30 | 51 | 95 | CC[C@H](C)[C@H](NC(=O)[C@H](CC1CCCCC1)NC(=O)c1ccno1)C(=O)NCc1ccc(OC)cc1 | 
31 | 46 | 90 | CC[C@H](C)[C@H](NC(=O)[C@H](CC1CCCCC1)NC(=O)c1ccno1)C(=O)NCc1cccc2c1OCO2 | 
32 | 40 | 93 | CC[C@H](C)[C@H](NC(=O)[C@H](CC1CCCCC1)NC(=O)c1ccno1)C(=O)NCc1ccccc1F | 
33 | 45 | 94 | CC[C@H](C)[C@H](NC(=O)[C@H](CC1CCCCC1)NC(=O)c1ccno1)C(=O)NCc1ccccc1[N+](=O)[O-] | 
